In patent publication US20090030033A1, “Novel Compounds 894” (AstraZeneca AB, priority 2007, published 2009) one finds IC50 data, which are given here for one compound.

pIC50: −log10 of the molar value. Counter-ions that a name gives are not always drawn.

The target of this test is T1, human GlyT1b (Homo sapiens, UniProt P48067).
T1 construct: expressed in transfected cells
T1 sequence (P48067 1-652 isoform P48067-3): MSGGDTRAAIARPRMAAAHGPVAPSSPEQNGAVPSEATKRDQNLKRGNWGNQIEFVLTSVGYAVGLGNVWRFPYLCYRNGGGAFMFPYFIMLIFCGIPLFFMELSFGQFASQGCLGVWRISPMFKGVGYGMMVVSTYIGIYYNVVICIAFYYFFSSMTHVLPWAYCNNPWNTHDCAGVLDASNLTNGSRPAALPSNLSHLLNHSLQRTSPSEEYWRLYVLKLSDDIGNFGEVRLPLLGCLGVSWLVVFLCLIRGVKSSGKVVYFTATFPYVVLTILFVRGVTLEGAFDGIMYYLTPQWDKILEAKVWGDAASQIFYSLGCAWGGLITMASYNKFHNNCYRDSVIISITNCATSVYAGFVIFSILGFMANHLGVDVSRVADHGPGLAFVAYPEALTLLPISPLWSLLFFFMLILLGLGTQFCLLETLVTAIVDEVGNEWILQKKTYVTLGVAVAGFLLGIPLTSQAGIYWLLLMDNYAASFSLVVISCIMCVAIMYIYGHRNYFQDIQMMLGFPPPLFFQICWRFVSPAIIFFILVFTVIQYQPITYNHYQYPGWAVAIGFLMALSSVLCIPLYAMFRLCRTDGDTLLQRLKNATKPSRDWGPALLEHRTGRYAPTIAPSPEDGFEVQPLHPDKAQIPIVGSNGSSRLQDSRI
The test can be described thus: [3H]Glycine Uptake Assay (SPA) in hGlyT1b/CHO cells. The test is classed as cell-based. As to conditions: compounds of Formula Ib, read at 2 h. The method, then:
The activity and usefulness of the compounds can be assessed in assays known to those skilled in the art. […] The potency was measured in the [3H]Glycine Uptake Assay substantially as described below.
[^3H]Glycine Uptake Assay
[^3H]Glycine: PerkinElmer (NET-004, [2-^3H]Glycine, 53.3 Ci/mmol, 1 mCi/mL)
Preparation of recombinant human GlyT1-CHO cells (hGlyT1-CHO). […] CHO-K1 cells (ATCC) were transfected with the recombinant vector containing GlyT1b using Lipofectamine 2000 (Invitrogen) and cultured in Ham's/F12 media supplemented with 10% fetal bovine serum, 2 mM L-glutamine at 37° C., 5% CO2, 90% humidity. Twenty-four hours after transfection, cells were diluted and switched to media containing 500 μg/ml hygromycin B. Antibiotic resistant cells were obtained after 21 days of culture in the presence of hygromycin B. Clonal stable cell lines were isolated by FACS single cell deposition into 96-well plates.
Cell culture: Recombinant hGlyT1-CHO cells were cultured in cell culture medium (Ham's/F12, containing 10% FBS, 2 mM L-glutamine and 500 μg/ml hygromycin B in 175 cm^2 flasks until near confluence prior to use in assay.
Cell suspension: Cell medium in a cell culture flask containing near confluent cells was removed and 5 ml of cell stripper was added to submerge all cells on the surface of the culture flask. Cell stripper was removed immediately and the flask incubated in a 37° C. incubator for ˜5 min. Cells were shaken loose and suspended in 5 ml of PBS. After splitting cells to initiate a new flask(s), the cells remaining were collected by centrifugation, counted, and resuspended in assay buffer to a density of ˜2 million/mL. The cell suspension was kept at room temperature before use.
SPA and isotope mixture: WGA PTV beads were suspended in assay buffer (2 mg/ml) containing 60 nM [^3H]Glycine and 20 μM unlabeled glycine and the suspension was kept at room temperature before assay.
Assay of glycine uptake: To the wells of an OptiPlate, 2 μl DMSO containing a test compound was spotted. This was followed by addition of 98 μl of cell suspension (˜1 million/ml final). After incubating cells with compound for ˜15 min, 100 μl of the SPA (200 μg/well final) and isotope mixture (30 nM isotope with 10 μM cold glycine, final) was added to initiate the glycine uptake. At 2 h, the plate was read on a TopCount to quantify SPA counts.

Take `CN1CC2CCC1(C(NC(=O)c1ccc(F)cc1Cl)c1ccccc1)CC2` [drawing 58, (R)-2-chloro-4-fluoro-N-((2-methyl-2-azabicyclo[2.2.2]octan-1-yl)(phenyl)methyl)benzamide,citric acid salt]: the pIC50 was 8.11.

The term pIC50 denotes the IC50 on a negative log10 scale, so that one unit is a factor of ten. A lower pIC50 goes with a high IC50.
